Values of other authors, collected in US5827682A, “Two-step conversion of vegetable protein isoflavone conjugates to aglucones” (Protein Technologies International, Inc., priority 1996, dated 1998).

Experiments:
[1] = tested on: Epidermal Growth Factor Receptor; details: title of cited article
[2] = tested on: human prostate cancer cells; details: title of cited article
[3] = tested on: human breast cancer cells; details: title of cited article; independence from estrogen receptors and the multi-drug resistance gene

| SMILES | Inhibition of epidermal growth factor receptor tyrosine autophosphorylation [1] | Inhibition of the growth of human prostate cancer cells [2] | Inhibition of the growth of human breast cancer cells [3] |
| --- | --- | --- | --- |
| COc1ccc(-c2coc3cc(O)cc(O)c3c2=O)cc1 [Biochanin A, biochanin A] | not Epidermal Growth Factor Receptor Tyrosine Autophosphorylation | Inhibit the Growth of Human Prostate Cancer Cells | – |
| O=c1c(-c2ccc(O)cc2)coc2cc(O)cc(O)c12 [Genistein, genistein] | not Epidermal Growth Factor Receptor Tyrosine Autophosphorylation | Inhibit the Growth of Human Prostate Cancer Cells | Inhibition of the Growth of Human Breast Cancer Cells |
